From ChEMBL document CHEMBL3817833, “Synthesis and evaluation of antitubercular activity of fluorinated 5-aryl-4-(hetero)aryl substituted pyrimidines” (Bioorg Med Chem, 2016)
In brackets after ≈: the same amount, converted by molar mass.

Test system: Mycobacterium tuberculosis
Assay: Antimycobacterial activity against rifampin and isoniazid resistant-Mycobacterium tuberculosis Beijing harboring Ser 531 to Leu 315 and Ser to Thr in rpoB and katG genes mutation after 24 hrs by microbroth dilution method
Type: functional

Compound	MIC [µM]
c1ccc(-c2cncnc2)cc1	80.03 (≈ 12.5 µg/mL)
Fc1ccccc1-c1cncnc1	71.76 (≈ 12.5 µg/mL)
Fc1cc(F)cc(-c2cncnc2-c2cccs2)c1	45.57 (≈ 12.5 µg/mL)
Fc1ccc(-c2cncnc2-c2ccco2)cc1	52.03 (≈ 12.5 µg/mL)
Fc1ccc(-c2cncnc2)cc1	71.76 (≈ 12.5 µg/mL)
FC(F)(F)c1cc(-c2cncnc2-c2cccs2)cc(C(F)(F)F)c1	33.39 (≈ 12.5 µg/mL)
Fc1ccc(-c2cncnc2-c2cccs2)cc1	12.5 (≈ 3.2 µg/mL)
Fc1cccc(-c2cncnc2-c2cccs2)c1	12.5 (≈ 3.2 µg/mL)
FC(F)(F)c1cccc(-c2cncnc2-c2cccs2)c1	4.9 (≈ 1.5 µg/mL)
c1ccc(-c2cncnc2-c2ccco2)cc1	1.57 (≈ 0.349 µg/mL)
c1ccc(-c2cncnc2-c2cccs2)cc1	26.02 (≈ 6.2 µg/mL)
Fc1ccc(-c2cncnc2-c2cccs2)c(F)c1	45.57 (≈ 12.5 µg/mL)
Fc1cccc(-c2cncnc2-c2ccco2)c1	6.24 (≈ 1.5 µg/mL)
Fc1cc(F)cc(-c2cncnc2-c2ccco2)c1	24.01 (≈ 6.2 µg/mL)
FC(F)(F)c1ccccc1-c1cncnc1	27.66 (≈ 6.2 µg/mL)
FC(F)(F)c1ccc(-c2cncnc2)cc1	55.76 (≈ 12.5 µg/mL)
FC(F)(F)c1ccccc1-c1cncnc1-c1cccs1	20.24 (≈ 6.2 µg/mL)

Compound	MIC [µM]
FC(F)(F)c1ccc(-c2cncnc2)c(C(F)(F)F)c1	42.78 (≈ 12.5 µg/mL)
Fc1ccc(-c2cncnc2)c(F)c1	16.13 (≈ 3.1 µg/mL)
FC(F)(F)c1ccc(-c2cncnc2-c2ccco2)cc1	43.07 (≈ 12.5 µg/mL)
FC(F)(F)c1ccc(-c2cncnc2-c2ccco2)c(C(F)(F)F)c1	1.95 (≈ 0.699 µg/mL)
Fc1cccc(-c2cncnc2)c1	35.88 (≈ 6.25 µg/mL)
Fc1cc(F)cc(-c2cncnc2)c1	3.64 (≈ 0.699 µg/mL)
Fc1ccccc1-c1cncnc1-c1cccs1	12.5 (≈ 3.2 µg/mL)
FC(F)(F)c1ccc(-c2cncnc2-c2cccs2)cc1	40.81 (≈ 12.5 µg/mL)
Fc1ccc(-c2cncnc2-c2ccco2)c(F)c1	48.41 (≈ 12.5 µg/mL)
Fc1ccccc1-c1cncnc1-c1ccco1	52.03 (≈ 12.5 µg/mL)
FC(F)(F)c1cccc(-c2cncnc2-c2ccco2)c1	43.07 (≈ 12.5 µg/mL)
FC(F)(F)c1ccc(-c2cncnc2-c2cccs2)c(C(F)(F)F)c1	16.56 (≈ 6.2 µg/mL)
FC(F)(F)c1ccccc1-c1cncnc1-c1ccco1	43.07 (≈ 12.5 µg/mL)
FC(F)(F)c1cccc(-c2cncnc2)c1	55.76 (≈ 12.5 µg/mL)
FC(F)(F)c1cc(-c2cncnc2-c2ccco2)cc(C(F)(F)F)c1	8.65 (≈ 3.1 µg/mL)
FC(F)(F)c1cc(-c2cncnc2)cc(C(F)(F)F)c1	5.13 (≈ 1.5 µg/mL)
CC1COc2c(N3CCN(C)CC3)c(F)cc3c(=O)c(C(=O)O)cn1c23 (centres undefined) [OFLOXACIN]	0.28 (≈ 0.101 µg/mL)
